Entries after “also recorded” stand apart in the source; their conditions may differ. Like-named read-outs stand apart in the source and are kept apart here.
Tests used:
Type in all cases: cell-based
[1] = test system: HCT-15 (human colon adenocarcinoma); experiment: SRB cytotoxicity assay, HCT-15 cells
Protocol: (§1) The cytotoxicity of all compounds was assessed against several cancer cell lines, namely U251 (human glioblastoma), PC-3 (human prostate adenocarcinoma), K562 (human chronic myelogenous leukemia), HCT-15 (human colon adenocarcinoma), MCF-7 (human mammary adenocarcinoma), SKLU-1 (human lung adenocarcinoma), and COS-7 (non-tumoral monkey kidney). These cell lines were obtained from the U.S. National Cancer Institute (NCI) (Montgomery County, MD, USA). The cells were cultured in RPMI-1640 medium supplemented with 10% fetal bovine serum, 2 mM L-glutamine, 10,000 units/mL penicillin G sodium, 10,000 μg/mL streptomycin sulfate, 25 μg/mL amphotericin B (Invitrogen/Gibco^TM, Thermo Fisher Scientific, Waltham, MA, USA), and 1% non-essential amino acids (Gibco). They were maintained at a temperature of 37 °C in a humidified atmosphere containing 5% CO2. The experiment’s cell viability exceeded 95%, as determined using trypan blue staining. To evaluate the cytotoxicity on human tumor cells, the protein-binding dye sulforhodamine B (SRB) was employed in a microculture assay, following the protocols established by the NCI [52, 53, 54]. The results were reported as IC50 values, representing the inhibitory concentration required for 50% inhibition. The IC50 values were determined using the Monks protocol, which involved plotting dose-response curves for each compound and estimating the concentration (IC50) at which a 50% inhibition was observed through non-linear regression analysis.

[2] = test system: K562 (human chronic myelogenous leukemia); experiment: SRB cytotoxicity assay, K562 cells
Protocol: as §1

[3] = test system: COS-7 (non-tumoral monkey kidney); experiment: SRB cytotoxicity assay, COS-7 non-tumoral cells
Protocol: as §1

[4] = test system: PC-3 (human prostate adenocarcinoma); experiment: SRB cytotoxicity assay, PC-3 cells
Protocol: as §1

[5] = test system: SKLU-1 (human lung adenocarcinoma); experiment: SRB cytotoxicity assay, SKLU-1 cells
Protocol: as §1

[6] = test system: U251 (human glioblastoma); experiment: SRB cytotoxicity assay, U251 cells
Protocol: as §1

[7] = test system: MCF-7 (human mammary adenocarcinoma); experiment: SRB cytotoxicity assay, MCF-7 cells
Protocol: as §1

[8] = HCT15 cell line, SRB assay, read-out: IC50 HCT15
[9] = K562 cell line, SRB assay, read-out: IC50 K562
[10] = non-cancerous COS-7 cells, SRB assay, read-out: IC50 COS-7
[11] = PC-3 cell line, SRB assay, read-out: IC50 PC-3
[12] = SKLU-1 cell line, SRB assay, read-out: IC50 SKLU-1
[13] = U251 cell line, SRB assay, read-out: IC50 U251
[14] = MCF7 cell line, SRB assay, read-out: IC50 MCF7

Row | Compound | IC50 [1, 8] | IC50 [2, 9] | IC50 [3, 10] | IC50 [4, 11] | IC50 [5, 12] | IC50 [6, 13] | IC50 [7, 14] | also measured
1 | N.N.[Cl][Pt][Cl] [Cisplatin, reference compound] | 10 ± 0.9 µM |  |  |  |  |  |  | 
2 | COc1ccc(/C=C/C(=O)/C=C(O)/C=C/c2ccc(OC)c(OC)c2)cc1OC [DiMeOC, Dimethoxycurcumin] |  |  |  |  |  |  |  | IC50 ([2]; Homo sapiens, K562, read-out: IC50 K562): 6.5 ± 1.4 µM; IC50 ([3]; Primates, COS-7, read-out: IC50 COS-7): 2.02 ± 0.07 µM; IC50 ([1]; Homo sapiens, HCT-15, read-out: IC50 HCT15): 6.6 ± 0.3 µM; IC50 ([4]; Homo sapiens, PC-3, read-out: IC50 PC-3): 5.9 ± 0.6 µM; IC50 ([5]; Homo sapiens, SK-LU-1, read-out: IC50 SKLU-1): 7.2 ± 0.4 µM; IC50 ([6]; Homo sapiens, U-251, read-out: IC50 U251): 2.02 ± 0.07 µM; IC50 ([7]; Homo sapiens, MCF7, read-out: IC50 MCF7): 6.9 ± 1 µM
3 | Curcumin [reference compound] | 21.3 ± 0.9 µM | 16.4 ± 0.04 µM | 21.8 ± 2.1 µM | 22.5 ± 1.9 µM | 12.9 ± 0.7 µM | 20.5 ± 1.7 µM | 18.4 ± 0.9 µM | 
4 | Dimethoxycurcumin gallium [(DiMeOC)2-Ga] |  | 2 ± 0.2 µM | 23.2 ± 1.9 µM | 10.5 ± 0.3 µM |  | 5.3 ± 0.1 µM | 15.5 ± 0.4 µM | Selectivity: IC50 in COS-7 compared to K562 ([2]; COS-7 vs K562, times less cytotoxic): 11 times; Toxicity relative to cisplatin ([3]; lower toxicity than cisplatin (non-cancerous COS-7)): three times lesser toxicity than cisplatin; also recorded: up to three times lower toxicity than cisplatin; Selectivity: IC50 in COS-7 compared to PC-3 ([4]; COS-7 vs PC-3, times less cytotoxic): 2 times; Selectivity: IC50 in COS-7 compared to U251 ([6]; COS-7 vs U251, times less cytotoxic): 4 times
5 | Dimethoxycurcumin indium [(DiMeOC)3-In] | 7.9 ± 0.2 µM |  |  | 7.6 ± 0.05 µM | 6.2 ± 0.4 µM | 6.3 ± 0.6 µM | 9.7 ± 0.4 µM | 

From publication PMC10671313, “First Gallium and Indium Crystal Structures of Curcuminoid Homoleptic Complexes: All-Different Ligand Stereochemistry and Cytotoxic Potential” (International Journal of Molecular Sciences, 2023)
